According to US9309198B2, “N-[3-(2-carboxyethyl)phenyl]piperidin-1-ylacetamide derivatives and use thereof as activators of soluble guanylate cyclase” (Bayer Pharma Aktiengesellschaft, priority 2012, dated 2016):
Counter-ions that a name gives are not always drawn.

Columns and labels:
[1] = biological target: T1, recombinant guanylate cyclase reporter cell line (sGC, CHO reporter cell) (Rattus norvegicus, UniProt P20595); assay: Effect on a recombinant guanylate cyclase reporter cell line (CHO reporter cell); type: cell-based
T1 construct: expressed in transfected cells; host or cells: CHO reporter cell line
T1 sequence (P20595 1-619): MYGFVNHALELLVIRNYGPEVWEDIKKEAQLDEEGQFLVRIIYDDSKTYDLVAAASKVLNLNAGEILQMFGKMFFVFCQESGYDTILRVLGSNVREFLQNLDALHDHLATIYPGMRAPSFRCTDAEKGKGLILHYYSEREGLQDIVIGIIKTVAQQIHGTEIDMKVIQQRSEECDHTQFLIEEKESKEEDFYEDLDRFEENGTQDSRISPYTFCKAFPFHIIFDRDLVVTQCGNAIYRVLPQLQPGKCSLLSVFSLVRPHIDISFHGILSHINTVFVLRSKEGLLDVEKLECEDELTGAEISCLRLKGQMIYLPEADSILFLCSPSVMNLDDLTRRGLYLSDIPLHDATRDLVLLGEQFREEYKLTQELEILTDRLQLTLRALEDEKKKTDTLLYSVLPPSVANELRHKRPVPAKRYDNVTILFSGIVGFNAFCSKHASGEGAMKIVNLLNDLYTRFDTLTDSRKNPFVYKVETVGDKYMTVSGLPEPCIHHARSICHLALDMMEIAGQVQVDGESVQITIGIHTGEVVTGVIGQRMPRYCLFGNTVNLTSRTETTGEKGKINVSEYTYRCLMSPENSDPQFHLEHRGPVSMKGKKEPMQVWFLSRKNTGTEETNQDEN
T1 sequence (P19686 1-690 partner): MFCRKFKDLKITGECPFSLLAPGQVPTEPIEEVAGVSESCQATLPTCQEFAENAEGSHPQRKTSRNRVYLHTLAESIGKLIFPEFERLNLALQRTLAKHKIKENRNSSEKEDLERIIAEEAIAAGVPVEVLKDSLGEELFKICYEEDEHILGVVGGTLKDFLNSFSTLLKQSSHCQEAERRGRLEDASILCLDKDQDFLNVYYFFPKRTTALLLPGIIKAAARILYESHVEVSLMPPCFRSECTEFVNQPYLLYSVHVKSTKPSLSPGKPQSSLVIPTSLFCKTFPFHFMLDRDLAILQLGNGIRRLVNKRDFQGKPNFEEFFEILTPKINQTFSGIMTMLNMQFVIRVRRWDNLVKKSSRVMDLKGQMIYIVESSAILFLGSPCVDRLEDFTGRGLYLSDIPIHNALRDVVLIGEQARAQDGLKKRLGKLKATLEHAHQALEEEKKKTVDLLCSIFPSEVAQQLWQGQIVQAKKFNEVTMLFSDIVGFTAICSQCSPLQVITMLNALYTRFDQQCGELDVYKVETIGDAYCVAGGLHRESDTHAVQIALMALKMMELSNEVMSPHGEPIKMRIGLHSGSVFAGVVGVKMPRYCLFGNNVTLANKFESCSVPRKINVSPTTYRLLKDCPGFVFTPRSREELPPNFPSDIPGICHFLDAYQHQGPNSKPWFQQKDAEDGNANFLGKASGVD
Description: B-2. Effect on a Recombinant Guanylate Cyclase Reporter Cell Line The cellular activity of the compounds according to the invention is determined using a recombinant guanylate cyclase reporter cell line, as described in F. Wunder et al., Anal. Biochem. 339, 104-112 (2005).

[2] = biological target: T2, soluble guanylate cyclase (sGC) (Rattus norvegicus, UniProt P20595); assay: Stimulation of sGC enzyme activity (PPi detection, luciferase luminescence); type: biochemical; conditions: for EC50: read-out: EC50 (half-maximal effective concentration), activating action at the sGC enzyme in vitro
T2 construct: made in house
T2 sequence (P20595 1-619): T1 sequence (P20595 1-619)
T2 sequence (P19686 1-690 partner): T1 sequence (P19686 1-690 partner)
Description: B-3. Stimulation of sGC Enzyme Activity
Soluble guanylate cyclase (sGC) converts on stimulation GTP into cGMP and pyrophosphate (PPi). PPi is detected with the aid of the assay described below. The signal produced in the assay increases as the reaction progresses and serves as a measure of the sGC enzyme activity under the given stimulation.
To carry out the assay, 29 μl of enzyme solution [0-10 nM soluble guanylate cyclase (prepared according to Hönicka et al., J. Mol. Med. 77, 14-23 (1999)) in 50 mM TEA, 2 mM MgCl2, 0.1% BSA (fraction V), 0.005% Brij®, pH 7.5] are initially introduced into a microplate, and 1 μl of the substance to be tested (as a serially diluted solution in DMSO) is added. The mixture is incubated at room temperature for 10 min. Then 20 μl of detection mix [1.2 nM Firefly Luciferase (Photinus pyralis luciferase, Promega), 29 μM dehydroluciferin (prepared according to Bitler & McElroy, Arch. Biochem. Biophys. 72, 358 (1957)), 122 μM luciferin (Promega), 153 μM ATP (Sigma) and 0.4 mM DTT (Sigma) in 50 mM TEA, 2 mM MgCl2, 0.1% BSA (fraction V), 0.005% Brij®, pH 7.5] are added. The enzyme reaction is started by adding 20 μl of substrate solution [1.25 mM guanosine 5′-triphosphate (Sigma) in 50 mM TEA, 2 mM MgCl2, 0.1% BSA (fraction V), 0.005% Brij®, pH 7.5] and measured continuously in a luminometer. The extent of the stimulation by the substance to be tested can be determined relative to the signal of the unstimulated reaction.
The activation of haem-free guanylate cyclase is examined by addition of 25 μM of 1H-1,2,4-oxadiazolo[4,3-a]quinoxalin-1-one (ODQ) to the enzyme solution and subsequent incubation for 30 minutes and compared to the stimulation of the native enzyme.

Row | Structure (SMILES) | MEC (minimum effective concentration), sGC-activating activity in the CHO reporter cell in vitro [1] [nM] | MEC (minimum effective concentration), activating action at the sGC enzyme in vitro [2] [nM] | EC50 [2] [µM]
1 | CC1CCN([C@@H](C(=O)Nc2cc(CC3(C(=O)O)CC3)ccc2Cl)[C@@H](C)C(F)(F)F)CC1 [Example 51, 1-(4-Chloro-3-{[(2R,3R)-4,4,4-trifluoro-3-methyl-2-(4-methylpiperidin-1-yl)butanoyl]amino}benzyl)cyclopropanecarboxylic acid] | 1 | 1.2 | –
2 | CC1CCN([C@@H](C(=O)Nc2cc(C[C@H](C)C(=O)O)ccc2Cl)[C@@H](C)C(F)(F)F)CC1 [Example 27] | 10 | 10.5 | 0.21
3 | CC1CCN(C(C(=O)Nc2cc(CC3(C(=O)O)CC3)ccc2F)C(C)C(F)(F)F)CC1 (single isomer, unassigned; (+)) [Example 36, (+)-1-(4-Fluoro-3-{[4,4,4-trifluoro-3-methyl-2-(4-methylpiperidin-1-yl)butanoyl]amino}benzyl)cyclopropanecarboxylic acid] | 2.3 | 3 | 0.025
4 | CC1CCN([C@@H](C(=O)Nc2cc([C@H](C)CC(=O)O)ccc2Cl)[C@@H](C)C(F)(F)F)CC1 (single isomer, unassigned) [Example 48] | 3 | 1.1 | 0.033
5 | C[C@H]([C@H](C(=O)Nc1cc(CCC(=O)O)ccc1F)N1CCC(C2CC2)CC1)C(F)(F)F [Example 18] | 30 | 6.9 | 0.54
6 | CCC1CCN(C(C(=O)Nc2cc(CC3(C(=O)O)CC3)ccc2F)C(C)C(F)(F)F)CC1 (single isomer, unassigned) [Example 8, 1-(3-{[2-(4-ethylpiperidin-1-yl)-4,4,4-trifluoro-3-methylbutanoyl]amino}-4-fluorobenzyl)cyclopropanecarboxylic acid] | 0.3 | 1.2 | 0.021

Further molecules by falling EC50 [2], results first:

Row | MEC (minimum effective concentration), sGC-activating activity in the CHO reporter cell in vitro [1] [nM] | MEC (minimum effective concentration), activating action at the sGC enzyme in vitro [2] [nM] | EC50 [2] [µM] | Structure (SMILES)
7 | 100 | 160 | 0.84 | O=C(Nc1cc(CC2(C(=O)O)CC2)ccc1F)C(C1CCCC1)N1CCc2ccccc2C1 (racemic) [Example 53, rac-1-(3-{[Cyclopentyl(3,4-dihydroisoquinolin-2(1H)-yl)acetyl]amino}-4-fluorobenzyl)cyclopropanecarboxylic acid trifluoroacetate]
8 | 1 | 3.9 | 0.081 | C[C@H](CC(=O)O)c1ccc(Cl)c(NC(=O)[C@@H]([C@@H](C)C(F)(F)F)N2CCC3(CC2)CC3)c1 (single isomer, unassigned) [Example 47]
9 | 1 | 0.8 | 0.01 | CCC1CCN([C@@H](C(=O)Nc2cc(CC3(C(=O)O)CC3)ccc2Cl)[C@@H](C)C(F)(F)F)CC1 [Example 26, 1-(4-Chloro-3-{[(2R,3R)-2-(4-ethylpiperidin-1-yl)-4,4,4-trifluoro-3-methylbutanoyl]amino}benzyl)cyclopropanecarboxylic acid]
